Test results taken from US6548543B1, “Remedies or preventives containing cyclopentenone compounds as the active ingredient” (Takara Shuzo Co., Ltd., priority 1998, dated 2003).
Converted amounts (≈) assume the structure as drawn. Numbered stars: 1 amine (or outer) side, 2 acyl side, 3 side chain; on linkers, the order of the positions; unused ones are H or OH. Bridge positions count the residues as written; N and C are the ends. Square brackets hold non-standard residues; d marks the D form. Peptide text beside a SMILES is read from it. I, II: the chains in the order shown. Actinocin(9to1) = Cc1c2oc3c(C)ccc(C(=O)[*:1])c3nc-2c(C(=O)[*:2])c(N)c1=O; NMeV = CN[C@H](C(=O)O)C(C)C; Sar = CNCC(=O)O

Assays:
[1] = Single oral dose toxicity; assay type: in vivo; settings: mouse
Description: No toxicity is observed when a physiologically effective amount of the cyclopentenone derivative or an optical isomer thereof, or a salt thereof obtained according to the present invention is administered.

[2] = test system: tumor necrosis factor (TNF)-α; assay: Endotoxin shock model, serum TNF-α after LPS; assay type: in vivo, CDF1 mice; settings: serum 1.5 hours after LPS
Description: (1) A model for endotoxin shock was constructed using CDF1 mice (8 weeks old, female, purchased from Japan SLC). Distilled water (control), or 10 mg/kg of diisopropionylcyclopentenone or diisobutyrylcyclopentenone was subcutaneously administered to a mouse. 20 μg of lipopolysaccharide (LPS; Sigma) was intraperitoneally administered to each mouse 30 minutes after the administration. Blood was collected from the mouse 1.5 hours after the administration with LPS. The amount of tumor necrosis factor (TNF)-α in a serum separated from the collected blood was measured using a commercially available ELISA kit (R&D). Each group consisted of 4 mice.
(2) A model for endotoxin shock was constructed by intraperitoneally administering 20 μg of LPS to a CDF1 mouse (8 weeks old, female). 30 or 100 mg/kg of dipropionylcyclopentenone or diisobutyrylcyclopentenone was orally administered 30 minutes before the administration with LPS. Blood was collected from the mouse 1.5 hours after the administration with LPS. The amount of TNF-α in a serum separated from the collected blood was measured using an ELISA kit. Each group consisted of 4 mice.

Meth A = assay: Ascitic cancer Meth A, prolongation of survival, 5 successive days; assay type: in vivo, BALB/c mouse; settings: intraperitoneal 10 mg/kg
Description: (§1) (3) The carcinostatic activities of dipropionylcyclopentenone and diisobutyrylcyclopentenone against various ascitic cancers were examined using two types of cancer cells, Ehrlich ascites carcinoma (EAC) and Meth A, administered intraperitoneally or orally at a varying dose.
(§2) Dipropionylcyclopentenone or diisobutyrylcyclopentenone was intraperitoneally or orally administered for 5 successive days from the day after the transplantation with cancer cells. Injectable distilled water was administered to a control group in a similar manner. Average days of survival, prolongation rate and 30-day survival number were calculated for groups each consisting of 8 mice.

[3] = test system: HL-60 (ATCC CCL-240) cells; assay: Viability and apoptosis of HL-60 cells (Trypan Blue, optical microscope); assay type: cell-based; settings: 24 hours; for IC50: Homo sapiens, Trypan Blue, read-out: Viability50 (concentration that results in a viability of 50%)
Description: HL-60 (ATCC CCL-240) cells were cultured at 37° C. in RPMI 1640 medium (Bio Whittaker) containing 10% fetal calf serum (FCS; JRH) which had been treated at 56° C. for 30 minutes and suspended in RPMI 1640 medium at a concentration of 2.5×10^5 cells/5 ml.
10 μl each of solutions of diisobutyrylcyclopentenone, dimethoxyacetylcyclopentenone, dimethylfumarylcyclopentenone or dimethylmaleylcyclopentenone in 70% ethanol in water diluted to varying concentrations was added to 5 ml of the suspension. The mixtures were incubated at 37° C. for 24 hours in the presence of 5% Co2. 10 μl of aqueous actinomycin D (Sigma) solution (0.5 mg/ml), which is known as a reagent that induces apoptosis, was used in place of the sample and the mixture was incubated under the same conditions for confirmation.
The cultured cells were examined under an optical microscope.
Furthermore, a portion of the cells cultured as described above was stained with 0.4% Trypan Blue and examined under an optical microscope. The number of viable cells which were not stained and the number of dead cells which were stained blue were counted. The concentration of each of the samples that results in a viability of 50% (Viability50 μM) was determined.

[4] = test system: Candida albicans TIMM0136; assay: Antifungal activity, growth inhibition; assay type: cell-based; settings: 10 μl of solution at 100 or 500 μg/ml added to 100 μl culture, 30° C., 48 hours
Description: Dipropionylcyclopentenone, diisobutyrylcyclopentenone and di-2-hexenoylcyclopentenone were used to examine their antifungal activities against Candida albicans TIMM0136.
Candida albicans cells were cultured overnight in YNBG medium containing 0.67% Yeast Nitrogen Base (Difco) and 1.0% glucose (seed culture). The culture was then diluted with fresh Yeast Nitrogen Base medium to a concentration of 1×10^6 cells/ml. 100 μl of the dilution was dispensed into each well of a 96-well microtiter plate.
10 μl each of solutions of dipropionylcyclopentenone, diisobutyrylcyclopentenone or di-2-hexenoylcyclopentenone in 70% ethanol at a concentration of 100 μg/ml or 500 μg/ml, or 10 μl of 70% ethanol solution was added to the well. The plate was incubated without shaking at 30° C. for 48 hours (main culture).

[5] = test system: Ehrlich ascites carcinoma (EAC); assay: Ascitic cancer EAC, prolongation of survival; assay type: in vivo, ddY mouse; settings: 5 successive days; for 30-day survival number: groups of 8 mice
Description: as §1, §2

[6] = test system: 70-kDa heat shock protein; assay: Induction of 70-kDa heat shock protein in HL-60 cells (Western blot); assay type: cell-based; set-up: key to Degree of induction of 70-kDa heat shock protein: − means that no induction was observed; ± means that a slight induction was observed; + represents the induction level; ++: Increased number of + means increased induction; +++: Increased number of + means increased induction; settings: for Degree of induction of 70-kDa heat shock protein: HL-60, 6 hours
Description: (1) 5 ml of RPMI 1640 medium containing 10% fetal calf serum and HL-60 (ATCC CCL-240) cells at a concentration of 2×10^5 cells/ml was placed in each well of a 6-well plate. The plate was incubated at 37° C. for 24 hours in the presence of 5% CO2. Dipropionylcyclopentenone, diisobutyrylcyclopentenone or di-2-hexenoylcyclopentenone at a final concentration of 0, 0.63, 1.3, 2.5, 5, 10 or 20 μM was then added thereto. The incubation was continued for additional 6 hours.
After incubation, the cell number was counted. The cells were harvested by centrifugation, washed with PBS to prepare cells treated with one of the samples. Cells that were cultured in the same manner after heated at 45° C. for 10 minutes were also prepared.
These treated cells were used for SDS-PAGE according to the method as described in Molecular Cloning [Cold Spring Harbor Laboratory Press (1989)]. The treated cells were suspended in SDS-PAGE Sample buffer at a concentration of 2.5×10^6 cells/ml. The cell suspensions were treated at 100° C. for 10 minutes. 5 μl each of the cell suspensions was applied to two SDS-PAGE gels (5% stacking gel, 10% separation gel) and electrophoresed. One of the gels was subjected to Coomassie staining. The other gel was blotted onto a polyvinylidene difluoride transfer membrane (Immobilon™, Millipore, Cat. #IPVH000-10). The membrane was blocked at 4° C. overnight using Block Ace (Dainippon Pharmaceutical, Cat. #UK-B25).
The blocked membrane was reacted with a monoclonal antibody HSP72/73(Ab-1) (Oncogene Research Products, Cat. #HSP01), which specifically reacts with heat-inducible 70-kDa heat shock protein. The membrane was washed with TBS containing 0.05% Tween 20 followed by TBS. The membrane was then reacted with a peroxidase-conjugated secondary antibody HRP-Rabbit Anti-Mouse IgG (H+L) (Zymed Laboratories, Inc., Cat. #61-6520), and then washed as described above. The membrane reacted with the primary and secondary antibodies was reacted with a chemiluminol reagent Renaissance™ (Dupont NEN, Cat. #NEL-100). The membrane was then exposed to an X-ray film to confirm the induction of 70-kDa heat shock protein.

[7] = test system: λ-carrageenan pedal edema; assay: Carrageenan induced pedal edema; assay type: in vivo, Lewis rats; settings: rat, 3 hours after carrageenan
Description: Lewis rats (male, 9 weeks old, weighing about 250 g) were purchased from Seac Yoshitomi.
Rats were fasted from 18 hours before the start of the experiments. Dipropionylcyclopentenone, dihexanoylcyclopentenone, di-2-hexenoylcyclopentenone, diisobutyrylcyclopentenone or dibenzoylcyclopentenone dissolved in olive oil (Nacalai Tesque) was orally administered to 4 rats per group at 1 or 10 mg/10 ml/kg.
100 μl of 1% λ-carrageenan (Wako Pure Chemical Industries) suspension in saline (Otsuka Pharmaceutical) was injected into the sole of right paw of a rat 0.5 hour after the administration of test substance to induce pedal edema. The volume of the right foot of the rat was measured using an instrument for measuring pedal volume (Ugo Basile) 3 hours after the injection with carrageenan. The measurements were expressed as the rate of increase calculated based on the volume of the right foot of each rat measured before the administration with carrageenan.
FIG. 5 illustrate the relationship between the amount of cyclopentenone derivative administered and the rate of increase in edema in foot. The horizontal axis represents the dose […] and the vertical axis represents the rate of increase (%).

[8] = oral, single dosage of 100 mg/kg

## CC(C)C(=O)OC1C=CC(=O)C1OC(=O)C(C)C (stereo not drawn) [Diisobutyrylcyclopentenone, diisobutyrylcyclopentenone]
[1]; in vivo, po, 100 mg/kg
  Death after single oral administration: no death was observed
[2]; 10 mg/kg subcutaneous 30 minutes before LPS
  Amount of TNF mean ± SE: 3.39 ± 0.33 ng/mL
[2]; 30 mg/kg oral 30 minutes before LPS
  TNF mean ± SE: 3.92 ± 0.13 ng/mL
[2]; 100 mg/kg oral 30 minutes before LPS
  TNF mean ± SE: 2.48 ± 0.43 ng/mL
Meth A
  Average days of survival: 15.5 days
  Prolongation rate: 132%
Meth A; groups of 8 mice
  30-day survival number: 0
[3]
  IC50: 8.8 µM
[4]; Candida albicans, TIMM0136, read-out: Minimum growth inhibitory concentration
  MIC: 500 µg/mL (≈ 1970 µM)
[5]; intraperitoneal 10 mg/kg
  Average days of survival: 17.0 days
  Prolongation rate: 136%
  30-day survival number: 0
[5]; intraperitoneal 30 mg/kg
  Average days of survival: 25.3 days
  Prolongation rate: >202%
  30-day survival number: 3
[5]; oral 30 mg/kg
  Average days of survival: 15.1 days
  Prolongation rate: 121%
  30-day survival number: 0
[5]; oral 100 mg/kg
  Average days of survival: 20.9 days
  Prolongation rate: 167%
  30-day survival number: 0
[6]
  Concentration at which ability to induce HSP70 is maximized: 2.5 µM
  Concentration at which ability to induce HSP70 is observed: 1.25 µM
[6]; 0.63 μM
  Degree of induction of 70-kDa heat shock protein: ±
[6]; 1.3 μM
  Degree of induction of 70-kDa heat shock protein: +
[6]; 2.5 μM
  Degree of induction of 70-kDa heat shock protein: +++
[6]; 5 μM
  Degree of induction of 70-kDa heat shock protein: +++
[6]; 10 μM
  Degree of induction of 70-kDa heat shock protein: +
[6]; 20 μM
  Degree of induction of 70-kDa heat shock protein: +

## COCC(=O)OC1C=CC(=O)C1OC(=O)COC (stereo not drawn) [Dimethoxyacetylcyclopentenone, dimethoxyacetylcyclopentenone]
[3]
  IC50: 14 µM

## COC(=O)/C=C/C(=O)OC1C=CC(=O)C1OC(=O)/C=C/C(=O)OC (stereo not drawn) [Dimethylfumarylcyclopentenone, dimethylfumarylcyclopentenone]
[3]
  IC50: 2.9 µM

## Cc1c2oc3c(C)ccc(C(=O)N[C@@H]4C(=O)N[C@H](C(C)C)C(=O)N5CCC[C@H]5C(=O)N(C)CC(=O)N(C)[C@@H](C(C)C)C(=O)O[C@@H]4C)c3nc-2c(C(=O)N[C@@H]2C(=O)N[C@H](C(C)C)C(=O)N3CCC[C@H]3C(=O)N(C)CC(=O)N(C)[C@@H](C(C)C)C(=O)O[C@@H]2C)c(N)c1=O [actinomycin D, reference compound] (I: T[dV]P[Sar][NMeV] / II: T[dV]P[Sar][NMeV]; ester I:1-I:C, II:1-II:C; linker I:N-II:N via Actinocin(9to1))
[3]; optical microscope
  Apoptosis-inducing / antiproliferation activity (condensation of nuclei, shrinking of cells, apoptotic bodies): Condensation of nuclei, shrinking of cells and formation of apoptotic bodies were observed

## di-2-hexenoylcyclopentenone
[1]; [8]
  Death after single oral administration: no death was observed
[7]; 1 mg/kg oral
  Suppression of edema in foot (FIG. 5): significant suppression
[7]; 10 mg/kg oral
  Suppression of edema in foot (FIG. 5): significant suppression
[4]
  Minimum growth inhibitory concentration: 500 µg/mL
[6]; 0.63 μM
  Degree of induction of 70-kDa heat shock protein: ±
[6]; 1.3 μM
  Degree of induction of 70-kDa heat shock protein: +
[6]; 2.5 μM
  Degree of induction of 70-kDa heat shock protein: ++
[6]; 5 μM
  Degree of induction of 70-kDa heat shock protein: +++
[6]; 10 μM
  Degree of induction of 70-kDa heat shock protein: ±
[6]; 20 μM
  Degree of induction of 70-kDa heat shock protein: −

## dihexanoylcyclopentenone
[1]; [8]
  Death after single oral administration: no death was observed
[7]; 1 mg/kg oral
  Suppression of edema in foot (FIG. 5): significant suppression
[7]; 10 mg/kg oral
  Suppression of edema in foot (FIG. 5): significant suppression
